Measurements from patent US20250082760A1 (priority 2020, published 2025).
Counter-ions that a name gives are not always drawn.

Tested on: reserpine-treated mice
Assay: mouse sugar water preference test (reserpine depression model)
Assay type: in vivo, Kunming mice
Protocol: Experimental drug, clomipramine (CLI), sigma company, batch number: C7291, 10 mg/ml (10% DMSO); reserpine (Res), sigma company, batch number: 83580, 1 mg/ml (10% DMSO);
SPF adult male Kunming mice, 20-30 g, Laboratory Animal Center of Lanzhou University, animal certificate number: SCXK (Gan) 2018-0002, reared in separate cages, temperature 22±1° C., humidity […], 12 h/12 h light and dark cycle controlled by dynamic light (light-on time 8:000 h, light-off time 20:000 h, light intensity≈100 lux), animals could eat and move freely.
Statistical analysis, the experimental data were analyzed by SPSS 19.0 statistical software, and all data were expressed as Means±SEM.

## CC(C)c1cccc(C(C)C)c1OC(=O)CC1(CN(C)C)CCCCC1 [Compound 5, 2,6-diisopropylphenyl 2-(1-((dimethylamino)methyl)cyclohexyl)acetate hydrochloride]
Res 6 mg/kg + compound 5 56 mg/kg i.p.
  antidepressant effect (sugar water preference test): significant antidepressant effect
After Res 6 mg/kg i.p., CLI 50, Pro 25, A1P1 24 and 25, compound 5 56 mg/kg i.p.
  change of preference for sugar water compared with the Res+DMSO group: rose significantly
After Res 6 mg/kg i.p., CLI 50, Pro 25, A1P1 24 and 25, compound 5 56 mg/kg i.p., Means±SEM, Res + DMSO 0.642 ± 0.036, DMSO 0.901 ± 0.026
  Sugar water preference (sugar water drinking amount/total drinking amount): 0.894 ± 0.028
